Measurements reported in patent US20110118269A1, “FUSED PYRAZINE COMPOUNDS AS THEIR SALTS, USEFUL FOR THE TREATMENT OF DEGENERATIVE AND INFLAMMATORY DISEASES” (priority 2009, published 2011).

How the values were obtained:
[1] = test system: Collagen-Induced Arthritis model; test: CIA model; assay type: in vivo, mouse; conditions: 3 or 30 mg/kg/d, daily for 14 days
Method: Complete Freund Adjuvant/Collagen II (CFA/Coll II, bovine) is injected (1 mg/mL, 100 μL per animal) into the tail (intradermic) at the start of the experiment. Incomplete Freund Adjuvant /Collagen II (IFA/Coll II) is injected into the tail at the same level (1 mg/mL, 100 μL per animal) 21 days after CFA/Coll II injection. Animals are then randomized based on score and assigned to treatment groups assuring an equal distribution of score in the different groups. Treatment with either the test compound (1 mg/kg/d, 3 mg/kg/d or 30 mg/kg/d), positive control (Enbrel, 10 mg/kg/3× week, ip) or vehicle (Methyl Cellulose, 1% DMSO) starts at day 8 post IFA/Coll II-boost (i.e. […] of the experiment). Animals are dosed daily with the test compound, positive control or vehicle for 14 days. The animals are scored daily for clinical symptoms, scoring is reported for the individual paws. During the treatment period the body weight of the animals is monitored. Bone protection is analysed by x-ray imaging.

[2] = Tolerability of compounds in healthy mice (total body weight); assay type: in vivo, DBA/1J mice; conditions: 100 mg/kg/d, po, up to two weeks
Method: This protocol is designed to assess the tolerability of the compounds of the invention in healthy DBA/1J mice to determine the “therapeutic window” as defined by the dosing range between efficacious (mouse therapeutic Collagen-Induced Arthritis model) and toxic doses.
DBA/1J […] mice are used (CERJ (France)), the mice are 10-11 weeks old, and have a body weight of approx 20g.
Compounds are prepared for a dosing regimen of 100 mg/kg/d, po, free base, in a standard volume of injection of 0.1 mL/10 g of mice (equivalent to 10 mg/1 mL). For solution preparations, compounds are dissolved in 0.5% methyl-cellulose and 1% DMSO supplemented with 1 molar equivalent of methanesulfonic acid to ensure full dissolution, once a week.
Groups are randomized based on body weight and treated for up to two weeks. Each group contained 5 mice and received either test compound at 100 mg/kg, a comparison compound at 100 mg/kg/d (Compound A) or vehicle on a daily basis in a dosing volume of 200 μL per mouse.
Potential drug toxicity is monitored by observation every day and by recording body weights three times a week for weight loss. All statistical analyses are performed using Student's t test.
To assess the general tolerability of the treatments, the total body weight is followed throughout the course of the study.

[3] = test system: MMP1 expression by synovial fibroblasts; test: 'MMP assay': complex trigger induced MMP1 expression by RASFs, compound testing; assay type: cell-based; conditions: Homo sapiens, Fibroblast, 48 hrs
Method: A 384-well format ELISA for measurement of MMP1 is developed. Various primary antibodies are tested, as well as various ELISA protocols. The following protocol is developed and validated to measure MMP1 levels in SF supernatant in 384 well plates: white Lumitrac 600 384 well plates (Greiner) are coated with 2 μg/mL anti-MMP1 antibody MAB1346 (Chemicon). The antibody is diluted in buffer 40 (1.21 g Tris base (Sigma), 0.58 g NaCl (Calbiochem) and 5 mL 10% NaN3 (Sigma) in 1 L milliQ water and adjusted to pH 8.5). After overnight incubation at 4° C., plates are washed with PBS (80 g NaCl, 2g KCl (Sigma), 11.5 g Na2HPO4.7H2O and 2 g KH2PO4 in 10 L milliQ; pH 7.4) and blocked with 100 μL/well Casein buffer (2% Casein (VWR International) in PBS). Next day, casein buffer is removed from ELISA plates and replaced by 50 μL/well EC buffer (4 g casein, 2.13 g Na2HPO4 (Sigma), 2 g bovine albumin (Sigma), 0.69 g NaH2PO4.H2O (Sigma), 0.5 g CHAPS (Roche), 23.3 g NaCl, 4 mL 0.5 M EDTA pH 8 (Invitrogen), 5 mL 10% NaN3 in 1 L milliQ and adjusted to pH 7.0). 0.25 mM DTT (Sigma) is added to the thawed samples plates. After removal of the EC buffer, 20 μL of sample is transferred to the ELISA plates. […] Readout is performed on the Luminoscan Ascent Luminometer (Labsystems) with an integration time of 200 msec or with an Envision reader (Perkin Elmer). […]

CC(C)N1C[C@@H]2C[C@H]1CN2c1ccc(Nc2ncc(-c3coc(C(N)=O)c3)n3ncnc23)cc1 [Compound 1, 4-{8-[4-((1S,4S)-5-Isopropyl-2,5-diaza-bicyclo[2.2.1]hept-2-yl)-phenylamino]-[1,2,4]triazolo[1,5-a]pyrazin-5-yl}-furan-2-carboxamide]
efficacy in CIA model [1]: efficacious
weight of the animals compared to the vehicle [2]: no statistically significant difference
IC50 [3]: 100 to 1000 nM
